# Assays:
# [1] = tested on: Vero E6 cells
# [2] = tested on: Ebola GP in lipid rafts of 293T cells; type: cell-based, human
# [3] = tested on: EBOV infection of Vero E6 cells; type: cell-based, Ebola virus
Molecule,"general cytotoxic effect, trypan blue exclusion [1]",association of Ebola GP with rafts (detergent insoluble fraction) [2],"EBOV infection, viral titer 48 hour post infection [3]",virus production after recovery from drug treatment [3]
nystatin,viable,–,–,–
methyl-β-cyclodextrin,–,almost complete removal of Ebola GP from rafts,–,–
CCCCC[C@@H](O)[C@H]1C(=O)O[C@H](C)[C@@H](O)/C=C/C=C/C=C/C=C/C=C(\C)[C@@H](O)C[C@H](O)C[C@H](O)C[C@H](O)C[C@H](O)C[C@H](O)C[C@@H]1O [filipin],viable,–,significant inhibition of EBOV infection,could produce large amounts of virus

# Source: patent US7682618B2 (priority 2001, dated 2010)
